Common to all, as to assay type: cell-based
In one test the target is T1, M1 muscarinic receptor (Homo sapiens, UniProt P11229).
T1 construct: expressed in transfected cells; host or cells: CHO (M1-CHO)
T1 sequence (P11229 1-460): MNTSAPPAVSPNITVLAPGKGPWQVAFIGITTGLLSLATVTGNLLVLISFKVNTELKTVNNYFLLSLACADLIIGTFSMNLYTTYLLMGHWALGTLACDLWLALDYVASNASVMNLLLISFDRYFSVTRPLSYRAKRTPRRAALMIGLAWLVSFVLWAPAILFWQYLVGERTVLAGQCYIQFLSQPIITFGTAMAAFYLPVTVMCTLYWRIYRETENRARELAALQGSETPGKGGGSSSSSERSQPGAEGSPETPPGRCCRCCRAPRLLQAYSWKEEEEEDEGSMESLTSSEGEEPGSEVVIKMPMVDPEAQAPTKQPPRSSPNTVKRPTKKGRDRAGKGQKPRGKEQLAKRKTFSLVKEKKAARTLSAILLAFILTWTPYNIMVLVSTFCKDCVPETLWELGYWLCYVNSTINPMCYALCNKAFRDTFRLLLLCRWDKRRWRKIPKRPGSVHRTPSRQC
The experiment in a line: Functional mobilization of intracellular calcium (FLIPR), M1-CHO cells. The conditions noted are these: for Emax: 100% efficacy is the maximum response obtained with the Carbachol control; for M1 Activity: M1-CHO cells, calcium mobilization (FLIPR). Put shortly:
(§1)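 CHO cells expressing human M1–M4 receptors loaded with Fluo-3 AM or Calcium 3 dye (1 mM probenecid, pH 7.4); 0.5% DMSO final. Agonist mode: compound added directly; antagonist mode: 15 min pre-incubation or co-application, then carbachol at EC80. Fluorescence read 60 s on FLIPR; efficacy relative to carbachol maximum.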
On the technique in general: Calcium flux is commonly read through the fluorescence of an indicator in the cells.

The next test has as its target T2, M2 muscarinic receptor (Homo sapiens, UniProt P08172).
T2 construct: expressed in transfected cells; host or cells: CHO (M2-CHO)
T2 sequence (P08172 1-466): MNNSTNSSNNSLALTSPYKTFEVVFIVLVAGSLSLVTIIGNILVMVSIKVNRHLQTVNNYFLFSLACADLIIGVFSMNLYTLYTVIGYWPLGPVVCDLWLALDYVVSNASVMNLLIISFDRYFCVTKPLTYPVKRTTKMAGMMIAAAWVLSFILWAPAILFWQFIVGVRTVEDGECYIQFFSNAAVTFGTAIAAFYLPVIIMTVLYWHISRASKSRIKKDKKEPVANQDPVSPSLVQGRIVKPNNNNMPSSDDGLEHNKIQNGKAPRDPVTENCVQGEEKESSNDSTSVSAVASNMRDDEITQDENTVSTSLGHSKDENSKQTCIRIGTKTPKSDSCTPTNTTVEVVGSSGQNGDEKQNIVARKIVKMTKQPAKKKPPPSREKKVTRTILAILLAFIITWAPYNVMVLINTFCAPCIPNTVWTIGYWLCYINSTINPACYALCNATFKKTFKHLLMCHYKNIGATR
As to the kind of experiment: Functional mobilization of intracellular calcium (FLIPR), M2-CHO cells. As to conditions: for Emax: 100% efficacy is the maximum response obtained with the Carbachol control; for M2 Activity: M2-CHO cells, calcium mobilization (FLIPR). In a few lines: as §1

Another test deals with T3, M4 muscarinic receptor (Homo sapiens, UniProt P08173).
T3 construct: expressed in transfected cells; host or cells: CHO (M4-CHO)
T3 sequence (P08173 1-479): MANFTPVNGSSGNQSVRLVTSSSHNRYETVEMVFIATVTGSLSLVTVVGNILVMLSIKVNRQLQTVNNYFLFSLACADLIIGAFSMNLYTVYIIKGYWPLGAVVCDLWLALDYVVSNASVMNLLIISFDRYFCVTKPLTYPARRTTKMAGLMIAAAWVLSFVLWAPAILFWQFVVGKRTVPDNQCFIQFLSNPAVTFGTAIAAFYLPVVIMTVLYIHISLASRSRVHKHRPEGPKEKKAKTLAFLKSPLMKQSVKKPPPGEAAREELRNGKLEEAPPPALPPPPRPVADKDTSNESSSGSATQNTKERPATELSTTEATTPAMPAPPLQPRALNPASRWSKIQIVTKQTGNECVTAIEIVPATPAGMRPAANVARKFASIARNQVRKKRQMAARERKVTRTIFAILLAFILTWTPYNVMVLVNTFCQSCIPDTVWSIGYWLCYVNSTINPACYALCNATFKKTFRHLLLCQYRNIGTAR
The experiment in a line: Functional mobilization of intracellular calcium (FLIPR), M4-CHO cells. The conditions noted are these: for Emax: 100% efficacy is the maximum response obtained with the Carbachol control; for M4 Activity: M4-CHO cells, calcium mobilization (FLIPR). In a few lines: as §1

A further test concerns the target T4, M3 muscarinic receptor (Homo sapiens, UniProt P20309).
T4 construct: expressed in transfected cells; host or cells: CHO (M3-CHO)
The experiment in a line: Functional mobilization of intracellular calcium (FLIPR), M3-CHO cells. The conditions noted are these: for Emax: 100% efficacy is the maximum response obtained with the Carbachol control; for M3 Activity: M3-CHO cells, calcium mobilization (FLIPR). Put shortly:
as §1

The structures appear in SMILES notation.

T4 sequence (P20309 whole entry): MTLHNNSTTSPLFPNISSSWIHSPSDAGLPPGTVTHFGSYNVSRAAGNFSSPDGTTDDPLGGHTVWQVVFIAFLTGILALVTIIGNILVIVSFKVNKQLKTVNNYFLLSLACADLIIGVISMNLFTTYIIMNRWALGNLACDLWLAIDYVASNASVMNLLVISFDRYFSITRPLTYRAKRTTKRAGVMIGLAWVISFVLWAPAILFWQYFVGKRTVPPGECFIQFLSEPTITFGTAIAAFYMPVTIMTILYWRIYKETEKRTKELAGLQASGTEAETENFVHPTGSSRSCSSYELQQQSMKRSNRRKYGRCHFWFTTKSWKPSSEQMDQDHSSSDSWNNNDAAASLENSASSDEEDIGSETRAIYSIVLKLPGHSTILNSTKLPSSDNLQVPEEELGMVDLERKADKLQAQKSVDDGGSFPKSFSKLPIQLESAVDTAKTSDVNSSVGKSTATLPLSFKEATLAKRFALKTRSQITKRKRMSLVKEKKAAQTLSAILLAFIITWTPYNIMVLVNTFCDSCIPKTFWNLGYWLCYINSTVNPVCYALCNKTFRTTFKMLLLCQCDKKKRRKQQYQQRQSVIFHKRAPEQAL

Turning to `CCON=C1CCC(N2CCC(c3cc(Cl)ccc3OC)CC2)CC1` (stereo not drawn) [Compound 417, 4-(4-(5-chloro-2-methoxyphenyl)piperidin-1-yl)cyclohexanone O-ethyl oxime], at M1 muscarinic receptor, the maximal effect (Emax) is 25 to 100% and the “M1 Activity” value is given as “+++ (activity was measured to be less than 1.0 μM)”. Moreover, on M2 muscarinic receptor, the maximal effect (Emax) was 25 to 100% and the “M2 Activity” value was “+++ (activity was measured to be less than 1.0 μM)”. Besides, on M4 muscarinic receptor, the maximal response (Emax) is greater than 100% and the “M4 Activity” value is given as “+++ (activity was measured to be less than 1.0 μM)”. In addition, on M3 muscarinic receptor, the maximal response (Emax) lay in the range of 25 to 100% and the “M3 Activity” value is reported as “+ (activity was measured to be greater than 5.0 μM)”.

As for `COc1ccc(Cl)cc1C1(F)CCN(CC2CCOCC2)CC1` [Compound 418], on M1 muscarinic receptor, the Emax is less than 25% and the “M1 Activity” value was “++ (activity was measured to be from 1.0 μM to 5.0 μM)”. On M2 muscarinic receptor, the Emax is less than 25% and the “M2 Activity” value is “+ (activity was measured to be greater than 5.0 μM)”. At M4 muscarinic receptor, the maximal response (Emax) fell in the range of 25 to 100% and the “M4 Activity” value was “++ (activity was measured to be from 1.0 μM to 5.0 μM)”. For the same compound, on M3 muscarinic receptor, the maximal response (Emax) was less than 25% and the “M3 Activity” value was “+ (activity was measured to be greater than 5.0 μM)”.

Take `COc1ccccc1-c1ccccc1C1CCN([C@H]2C[C@H]3CC[C@H]2C3)CC1` [Compound 420]: at M1 muscarinic receptor, the maximal response (Emax) was in the range of 25 to 100% and the “M1 Activity” value is recorded as “+ (activity was measured to be greater than 5.0 μM)”. At M2 muscarinic receptor, the maximum response (Emax) is less than 25% and the “M2 Activity” value is “+ (activity was measured to be greater than 5.0 μM)”. Besides, on M4 muscarinic receptor, the Emax fell in the range of 25 to 100% and the “M4 Activity” value was “++ (activity was measured to be from 1.0 μM to 5.0 μM)”. In addition, on M3 muscarinic receptor, the Emax was less than 25% and the “M3 Activity” value is reported as “+ (activity was measured to be greater than 5.0 μM)”.

For the compound `COc1ccccc1C(=O)COc1ccccc1C1CCN([C@H]2C[C@H]3CC[C@H]2C3)CC1` [Compound 422], at M1 muscarinic receptor, the maximal response (Emax) is 25 to 100% and the “M1 Activity” value is “++ (activity was measured to be from 1.0 μM to 5.0 μM)”. Further, at M2 muscarinic receptor, the Emax fell in the range of 25 to 100% and the “M2 Activity” value was “++ (activity was measured to be from 1.0 μM to 5.0 μM)”. Moreover, at M4 muscarinic receptor, the maximum response (Emax) fell in the range of 25 to 100% and the “M4 Activity” value is listed as “+++ (activity was measured to be less than 1.0 μM)”. In addition, at M3 muscarinic receptor, the maximal response (Emax) is less than 25% and the “M3 Activity” value is listed as “+ (activity was measured to be greater than 5.0 μM)”.

Turning to `COc1ccc(-c2ccc(C)cc2)cc1C1CCN([C@H]2C[C@H]3CC[C@H]2C3)CC1` [Compound 423], at M1 muscarinic receptor, the Emax is less than 25% and the “M1 Activity” value is recorded as “+ (activity was measured to be greater than 5.0 μM)”. Moreover, on M2 muscarinic receptor, the maximum response (Emax) was less than 25% and the “M2 Activity” value was “+ (activity was measured to be greater than 5.0 μM)”. On M4 muscarinic receptor, the Emax lay within 25 to 100% and the “M4 Activity” value is reported as “+ (activity was measured to be greater than 5.0 μM)”. Also, at M3 muscarinic receptor, the Emax was less than 25% and the “M3 Activity” value was “+ (activity was measured to be greater than 5.0 μM)”.

As for `Cc1ccc(F)cc1C1CCN(CC2C[C@H]3CC[C@H]2C3)CC1` (stereo partly drawn) [Compound 424], on M1 muscarinic receptor, the Emax fell in the range of 25 to 100% and the “M1 Activity” value is reported as “++ (activity was measured to be from 1.0 μM to 5.0 μM)”. In addition, on M2 muscarinic receptor, the Emax lay within 25 to 100% and the “M2 Activity” value was “++ (activity was measured to be from 1.0 μM to 5.0 μM)”. Besides, on M4 muscarinic receptor, the Emax is 25 to 100% and the “M4 Activity” value was “+++ (activity was measured to be less than 1.0 μM)”. Moreover, on M3 muscarinic receptor, the maximum response (Emax) is less than 25% and the “M3 Activity” value is reported as “+ (activity was measured to be greater than 5.0 μM)”.

As usually defined, the Emax is the greatest response seen or fitted, relative to the assay's reference.

For the origin of these results see patent US7880007B2, “Bicyclic substituted phenyl piperidine modulators of muscarinic receptors” (Vertex Pharmaceuticals Incorporated, priority 2004, dated 2011).
